Results published in patent EP4603105A1, “PHARMACEUTICAL COMPOSITION CONTAINING CYCLIC COMPOUND HAVING SELECTIVE KRAS INHIBITORY EFFECT AGAINST HRAS AND NRAS” (CHUGAI SEIYAKU KABUSHIKI KAISHA, priority 2022, dated 2024).
Where a SMILES comes first, the peptide text is derived from it. Bridges are numbered along the chain shown (N, C = ends). [ ]: non-standard residue; d: D form. The star is where a group is joined. hPhe(3-Cl-4-CF3) = N[C@@H](CCc1ccc(C(F)(F)F)c(Cl)c1)C(=O)O; NPrPhe(4-CF3) = CCCN[C@@H](Cc1ccc(C(F)(F)F)cc1)C(=O)O; Pip(4,4-F2) = O=C(O)[C@@H]1CC(F)(F)CCN1; NMeGly(cPent) = CN[C@H](C(=O)O)C1CCCC1; Pro(4,4-F2) = O=C(O)[C@@H]1CC(F)(F)CN1; Hyp = O=C(O)[C@@H]1C[C@@H](O)CN1; NMeD = CN[C@@H](CC(=O)O)C(=O)O; NMeL = CN[C@@H](CC(C)C)C(=O)O; Morpholide = C1CN(*)CCO1; Ac5c = NC1(C(=O)O)CCCC1; Aze = O=C(O)[C@@H]1CCN1; Ac4c = NC1(C(=O)O)CCC1; NPrGly = CCCNCC(=O)O; Sar = CNCC(=O)O

How the values were obtained:
[1] = target: HRAS wild-type protein (Homo sapiens, UniProt P01112); assay: Binding to HRAS by surface plasmon resonance (SPR), KD and KD ratio to KRAS; conditions: ratio of KD for HRAS wild-type protein to KD for KRAS
HRAS wild-type protein, sequence (P01112 whole entry): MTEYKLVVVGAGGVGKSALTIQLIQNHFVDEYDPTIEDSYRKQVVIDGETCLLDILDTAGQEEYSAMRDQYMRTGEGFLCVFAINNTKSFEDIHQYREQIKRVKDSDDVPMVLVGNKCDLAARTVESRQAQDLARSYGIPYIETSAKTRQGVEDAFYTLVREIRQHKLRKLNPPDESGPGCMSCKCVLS
Procedure, shortened: (§1)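 Compound binding is evaluated by SPR single-cycle kinetics, with concentrations added intermittently from low to high for 75 s each. Target surfaces carry GDP-loaded biotinylated Avi-RAS at about 100–300 RU, regenerated after each cycle; temperature 30°C. A 1:1 binding model gives KD.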

[2] = test system: human lung cancer strain NCI-H441; assay type: cell-based
Procedure, shortened: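 Proliferation was scored by […] measured after the reagent was added to cultures kept at 37°C in 5% carbon dioxide.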

[3] = target: GDP-bound NRAS wild-type protein (Homo sapiens, UniProt P01111); assay: Binding to NRAS by surface plasmon resonance (SPR), KD and KD ratio to KRAS; conditions: ratio of KD for GDP-bound NRAS wild-type protein to KD for KRAS
GDP-bound NRAS wild-type protein, sequence (P01111 whole entry): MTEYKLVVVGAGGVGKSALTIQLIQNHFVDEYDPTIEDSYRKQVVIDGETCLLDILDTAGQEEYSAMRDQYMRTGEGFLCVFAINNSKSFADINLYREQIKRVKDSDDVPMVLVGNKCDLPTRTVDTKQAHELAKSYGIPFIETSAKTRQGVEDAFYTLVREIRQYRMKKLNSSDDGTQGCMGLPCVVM
Procedure, shortened: as §1

Row | Compound | HRAS /KRAS [1] | IC50 [2] | NRAS /KRAS [3]
1 | CCCN1C(=O)CN(C)C(=O)[C@@H]2CCN2C(=O)[C@H]([C@@H](C)CC)NC(=O)[C@H](CC(C)C)N(C)C(=O)C[C@@H](C(=O)N2CCOCC2)N(C)C(=O)[C@H](C2CCCC2)N(C)C(=O)C2(CCCC2)NC(=O)[C@@H]2CC(F)(F)CCN2C(=O)[C@H](CCc2ccc(C(F)(F)F)c(Cl)c2)NC(=O)CN(C)C(=O)[C@@H]1Cc1ccc(C(F)(F)F)cc1 [PP0312] ([NMeL]I[Aze][Sar][NPrPhe(4-CF3)][Sar][hPhe(3-Cl-4-CF3)][Pip(4,4-F2)][Ac5c][NMeGly(cPent)][NMeD]-Morpholide; lactam N-11) | B (a compound having 3 or more and less than 10 is denoted as B) | 82.4 nM | B (a compound having 3 or more and less than 10 is denoted as B)
2 | CCCN1C(=O)CN(C)C(=O)[C@@H]2CCN2C(=O)[C@H]([C@@H](C)CC)NC(=O)[C@H](CC(C)C)N(C)C(=O)C[C@@H](C(=O)N2CCOCC2)N(C)C(=O)[C@H](C2CCCC2)N(C)C(=O)C2(CCCC2)NC(=O)CN(C)C(=O)[C@H](CCc2ccc(C(F)(F)F)c(Cl)c2)NC(=O)CN(C)C(=O)[C@@H]1Cc1ccc(C(F)(F)F)cc1 [PP0314] ([NMeL]I[Aze][Sar][NPrPhe(4-CF3)][Sar][hPhe(3-Cl-4-CF3)][Sar][Ac5c][NMeGly(cPent)][NMeD]-Morpholide; lactam N-11) | C (A compound having a KD ratio of 0.1 or more and less than 3 is denoted as C) | 58.1 nM | B (a compound having 3 or more and less than 10 is denoted as B)
3 | CCCN1CC(=O)NC2(CCCC2)C(=O)N(C)[C@@H](C2CCCC2)C(=O)N(C)[C@H](C(=O)N2CCOCC2)CC(=O)N(C)[C@@H](CC(C)C)C(=O)N[C@@H]([C@@H](C)CC)C(=O)N2CC[C@H]2C(=O)N(C)CC(=O)N(CCC)[C@@H](Cc2ccc(C(F)(F)F)cc2)C(=O)N(C)CC(=O)N[C@@H](CCc2ccc(C(F)(F)F)c(Cl)c2)C1=O [PP0315] ([NMeL]I[Aze][Sar][NPrPhe(4-CF3)][Sar][hPhe(3-Cl-4-CF3)][NPrGly][Ac5c][NMeGly(cPent)][NMeD]-Morpholide; lactam N-11) | B (a compound having 3 or more and less than 10 is denoted as B) | 148 nM | B (a compound having 3 or more and less than 10 is denoted as B)
4 | CC[C@H](C)[C@@H]1NC(=O)[C@H](CC(C)C)N(C)C(=O)C[C@@H](C(=O)N2CCOCC2)N(C)C(=O)[C@H](C2CCCC2)N(C)C(=O)C2(CCCC2)NC(=O)[C@@H]2CCCN2C(=O)[C@H](CCc2ccc(C(F)(F)F)c(Cl)c2)NC(=O)CN(C)C(=O)[C@H](Cc2ccc(C)cc2)N2CCCC[C@@H](C2=O)N(C)C(=O)CN(C)C1=O [PP0316] | B (a compound having 3 or more and less than 10 is denoted as B) | 2.8 nM | C (A compound having a KD ratio of 0.1 or more and less than 3 is denoted as C)
5 | CC[C@H](C)[C@@H]1NC(=O)[C@H](CC(C)C)N(C)C(=O)C[C@@H](C(=O)N2CCOCC2)N(C)C(=O)[C@H](C2CCCC2)N(C)C(=O)C2(CCCC2)NC(=O)[C@@H]2CCCN2C(=O)[C@H](CCc2ccc(C(F)(F)F)c(Cl)c2)NC(=O)CN(C)C(=O)[C@H](Cc2ccc(C)cc2)N2CCCCC[C@@H](C2=O)N(C)C(=O)CN(C)C1=O [PP0317] | B (a compound having 3 or more and less than 10 is denoted as B) | 32.2 nM | B (a compound having 3 or more and less than 10 is denoted as B)
6 | CC[C@H](C)[C@@H]1NC(=O)[C@H](CC(C)C)N(C)C(=O)C[C@@H](C(=O)N2CCOCC2)N(C)C(=O)[C@H](C2CCCC2)N(C)C(=O)C2(CCCC2)NC(=O)[C@@H]2CCCN2C(=O)[C@H](CCc2ccc(C(F)(F)F)c(Cl)c2)NC(=O)CN(C)C(=O)[C@H](Cc2ccc(C(F)(F)F)cc2)N2CCCC[C@@H](C2=O)N(C)C(=O)CN(C)C1=O [PP0318] | B (a compound having 3 or more and less than 10 is denoted as B) | 2.3 nM | B (a compound having 3 or more and less than 10 is denoted as B)
7 | CCCN1C(=O)CN(C)C(=O)CN(C)C(=O)[C@H]([C@@H](C)CC)NC(=O)[C@H](CC(C)C)N(C)C(=O)C[C@@H](C(=O)N2CCOCC2)NC(=O)[C@H](C2CCCC2)N(C)C(=O)C2(CCC2)NC(=O)[C@@H]2CCCN2C(=O)[C@H](CCc2ccc(C(F)(F)F)c(Cl)c2)NC(=O)CN(C)C(=O)[C@@H]1Cc1ccc(C(F)(F)F)cc1 [PP0320] ([NMeL]I[Sar][Sar][NPrPhe(4-CF3)][Sar][hPhe(3-Cl-4-CF3)]P[Ac4c][NMeGly(cPent)]D-Morpholide; lactam N-11) | B (a compound having 3 or more and less than 10 is denoted as B) | 92.3 nM | B (a compound having 3 or more and less than 10 is denoted as B)
8 | CCCN1C(=O)CN(C)C(=O)CN(C)C(=O)[C@H]([C@@H](C)CC)NC(=O)[C@H](CC(C)C)N(C)C(=O)C[C@@H](C(=O)N2CCOCC2)NC(=O)[C@H](C2CCCC2)N(C)C(=O)C2(CCCC2)NC(=O)[C@@H]2CC(F)(F)CN2C(=O)[C@H](CCc2ccc(C(F)(F)F)c(Cl)c2)NC(=O)CN(C)C(=O)[C@@H]1Cc1ccc(C(F)(F)F)cc1 [PP0321] ([NMeL]I[Sar][Sar][NPrPhe(4-CF3)][Sar][hPhe(3-Cl-4-CF3)][Pro(4,4-F2)][Ac5c][NMeGly(cPent)]D-Morpholide; lactam N-11) | B (a compound having 3 or more and less than 10 is denoted as B) | 55.7 nM | B (a compound having 3 or more and less than 10 is denoted as B)
9 | CCCN1C(=O)CN(C)C(=O)CN(C)C(=O)[C@H]([C@@H](C)CC)NC(=O)[C@H](CC(C)C)N(C)C(=O)C[C@@H](C(=O)N2CCOCC2)NC(=O)[C@H](C2CCCC2)N(C)C(=O)C2(CCC2)NC(=O)[C@@H]2CC(F)(F)CN2C(=O)[C@H](CCc2ccc(C(F)(F)F)c(Cl)c2)NC(=O)CN(C)C(=O)[C@@H]1Cc1ccc(C(F)(F)F)cc1 [PP0322] ([NMeL]I[Sar][Sar][NPrPhe(4-CF3)][Sar][hPhe(3-Cl-4-CF3)][Pro(4,4-F2)][Ac4c][NMeGly(cPent)]D-Morpholide; lactam N-11) | C (A compound having a KD ratio of 0.1 or more and less than 3 is denoted as C) | 74.2 nM | B (a compound having 3 or more and less than 10 is denoted as B)
10 | CCCN1C(=O)CN(C)C(=O)CN(C)C(=O)[C@H]([C@@H](C)CC)NC(=O)[C@H](CC(C)C)N(C)C(=O)C[C@@H](C(=O)N2CCOCC2)NC(=O)[C@H](C2CCCC2)N(C)C(=O)C2(CCCC2)NC(=O)[C@@H]2C[C@@H](OCC)CN2C(=O)[C@H](CCc2ccc(C(F)(F)F)c(Cl)c2)NC(=O)CN(C)C(=O)[C@@H]1Cc1ccc(C(F)(F)F)cc1 [PP0323] ([NMeL]I[Sar][Sar][NPrPhe(4-CF3)][Sar][hPhe(3-Cl-4-CF3)][Hyp](Et)[Ac5c][NMeGly(cPent)]D-Morpholide; lactam N-11) | B (a compound having 3 or more and less than 10 is denoted as B) | 64 nM | B (a compound having 3 or more and less than 10 is denoted as B)
11 | CCCN1C(=O)CN(C)C(=O)CN(C)C(=O)[C@H]([C@@H](C)CC)NC(=O)[C@H](CC(C)C)N(C)C(=O)C[C@@H](C(=O)N2CCOCC2)NC(=O)[C@H](C2CCCC2)N(C)C(=O)C2(CCC2)NC(=O)[C@@H]2C[C@@H](OCC)CN2C(=O)[C@H](CCc2ccc(C(F)(F)F)c(Cl)c2)NC(=O)CN(C)C(=O)[C@@H]1Cc1ccc(C(F)(F)F)cc1 [PP0324] ([NMeL]I[Sar][Sar][NPrPhe(4-CF3)][Sar][hPhe(3-Cl-4-CF3)][Hyp](Et)[Ac4c][NMeGly(cPent)]D-Morpholide; lactam N-11) | B (a compound having 3 or more and less than 10 is denoted as B) | 38.5 nM | B (a compound having 3 or more and less than 10 is denoted as B)
12 | CCCN1C(=O)CN(C)C(=O)CNC(=O)[C@H]([C@@H](C)CC)NC(=O)[C@H](CC(C)C)N(C)C(=O)C[C@@H](C(=O)N2CCOCC2)NC(=O)[C@H](C2CCCC2)N(C)C(=O)C2(CCCC2)NC(=O)[C@@H]2CCCN2C(=O)[C@H](CCc2ccc(C(F)(F)F)c(Cl)c2)NC(=O)CN(C)C(=O)[C@@H]1Cc1ccc(C(F)(F)F)cc1 [PP0325] ([NMeL]IG[Sar][NPrPhe(4-CF3)][Sar][hPhe(3-Cl-4-CF3)]P[Ac5c][NMeGly(cPent)]D-Morpholide; lactam N-11) | B (a compound having 3 or more and less than 10 is denoted as B) | 163 nM | B (a compound having 3 or more and less than 10 is denoted as B)
13 | CCCN1C(=O)CN(C)C(=O)CNC(=O)[C@H]([C@@H](C)CC)NC(=O)[C@H](CC(C)C)N(C)C(=O)C[C@@H](C(=O)N2CCOCC2)NC(=O)[C@H](C2CCCC2)N(C)C(=O)C2(CCC2)NC(=O)[C@@H]2CCCN2C(=O)[C@H](CCc2ccc(C(F)(F)F)c(Cl)c2)NC(=O)CN(C)C(=O)[C@@H]1Cc1ccc(C(F)(F)F)cc1 [PP0326] ([NMeL]IG[Sar][NPrPhe(4-CF3)][Sar][hPhe(3-Cl-4-CF3)]P[Ac4c][NMeGly(cPent)]D-Morpholide; lactam N-11) | B (a compound having 3 or more and less than 10 is denoted as B) | 172 nM | B (a compound having 3 or more and less than 10 is denoted as B)
